Assay results reported in PubChem BioAssay AID2060494 (Molecular Pharmacology Branch, DTP, NCI, 2025).

Tested on: 435261-313-R-J1-PDC complex spheroid viability
Assay: Anticancer human tumor 435261-313-R-J1-PDC patient-derived colon adenocarcinoma cell line growth inhibition [GQUAD]
Details: for IC50: curve of first compound; for viability, T/C: stronger effect = lower value
In short: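 Multi-cell-type spheroids of tumor cells with HUVEC and mesenchymal stem cells, treated with drug combinations. Concentrations descend in half-log steps from near clinical Cmax, or from 10 microM where Cmax is unknown; viability read-out.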

[1] = second compound 0.0316 µM, first compound 0.0316 µM
[2] = second compound 0.0316 µM, first compound 0.1 µM
[3] = second compound 0.0316 µM, first compound 0.316 µM
[4] = second compound 0.0316 µM, first compound 1 µM
[5] = second compound 0.0316 µM, first compound 3.16 µM
[6] = second compound 0.0316 µM, first compound 10 µM
[7] = second compound 0.1 µM, first compound 0.0316 µM
[8] = second compound 0.1 µM, first compound 0.1 µM
[9] = second compound 0.1 µM, first compound 0.316 µM
[10] = second compound 0.1 µM, first compound 1 µM
[11] = second compound 0.1 µM, first compound 3.16 µM
[12] = second compound 0.1 µM, first compound 10 µM
[13] = second compound 0.316 µM, first compound 0.0316 µM
[14] = second compound 0.316 µM, first compound 0.1 µM
[15] = second compound 0.316 µM, first compound 0.316 µM
[16] = second compound 0.316 µM, first compound 1 µM
[17] = second compound 0.316 µM, first compound 3.16 µM
[18] = second compound 0.316 µM, first compound 10 µM
[19] = second compound 1 µM, first compound 0.0316 µM
[20] = second compound 1 µM, first compound 0.1 µM
[21] = second compound 1 µM, first compound 0.316 µM
[22] = second compound 1 µM, first compound 1 µM
[23] = second compound 1 µM, first compound 3.16 µM
[24] = second compound 1 µM, first compound 10 µM
[25] = second compound 3.16 µM, first compound 0.0316 µM
[26] = second compound 3.16 µM, first compound 0.1 µM
[27] = second compound 3.16 µM, first compound 0.316 µM
[28] = second compound 3.16 µM, first compound 1 µM
[29] = second compound 3.16 µM, first compound 3.16 µM
[30] = second compound 3.16 µM, first compound 10 µM
[31] = second compound 10 µM, first compound 0.0316 µM
[32] = second compound 10 µM, first compound 0.1 µM
[33] = second compound 10 µM, first compound 0.316 µM
[34] = second compound 10 µM, first compound 1 µM
[35] = second compound 10 µM, first compound 3.16 µM
[36] = second compound 10 µM, first compound 10 µM
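Also: spheroids exposed to the agents for seven days before readout.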
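For viability, T/C in this document: percent of vehicle control viability with DMSO wells as 100%.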

## CC1COCCN1c1cc(C2(S(C)(=N)=O)CC2)nc(-c2ccnc3[nH]ccc23)n1 (stereo unspecified) + CN(C)c1ccc(Nc2c3ccc(NC(=O)CCN4CCCC4)cc3nc3cc(NC(=O)CCN4CCCC4)ccc23)cc1
Second compound 0.0316 µM
  IC50: > 10 µM
Second compound 0.1 µM
  IC50: > 10 µM
Second compound 0.316 µM
  IC50: > 10 µM
Second compound 1 µM
  IC50: > 10 µM
Second compound 3.16 µM
  IC50: > 10 µM
Second compound 10 µM
  IC50: 0.0883 µM
[1]
  viability, T/C: 153%
[2]
  viability, T/C: 99.2%
[3]
  viability, T/C: 71.8%
[4]
  viability, T/C: 98%
[5]
  viability, T/C: 69.2%
[6]
  viability, T/C: 70.7%
[7]
  viability, T/C: 88.2%
[8]
  viability, T/C: 96.2%
[9]
  viability, T/C: 106%
[10]
  viability, T/C: 79.1%
[11]
  viability, T/C: 76.7%
[12]
  viability, T/C: 51.8%
[13]
  viability, T/C: 89.4%
[14]
  viability, T/C: 101%
[15]
  viability, T/C: 89.8%
[16]
  viability, T/C: 68.6%
[17]
  viability, T/C: 64.6%
[18]
  viability, T/C: 53.7%
[19]
  viability, T/C: 109%
[20]
  viability, T/C: 115%
[21]
  viability, T/C: 87.6%
[22]
  viability, T/C: 81.4%
[23]
  viability, T/C: 79%
[24]
  viability, T/C: 51.2%
[25]
  viability, T/C: 61.1%
[26]
  viability, T/C: 55.8%
[27]
  viability, T/C: 68.3%
[28]
  viability, T/C: 76.2%
[29]
  viability, T/C: 50.6%
[30]
  viability, T/C: 45.3%
[31]
  viability, T/C: 55.3%
[32]
  viability, T/C: 50.3%
[33]
  viability, T/C: 32.9%
[34]
  viability, T/C: 23.8%
[35]
  viability, T/C: 22.6%
[36]
  viability, T/C: 17%

## Cn1ncnc1[C@H]1c2n[nH]c(=O)c3cc(F)cc(c23)N[C@@H]1c1ccc(F)cc1 + CN(C)c1ccc(Nc2c3ccc(NC(=O)CCN4CCCC4)cc3nc3cc(NC(=O)CCN4CCCC4)ccc23)cc1
Second compound 0.0316 µM
  IC50: > 0.316 µM
Second compound 0.1 µM
  IC50: > 0.316 µM
Second compound 0.316 µM
  IC50: > 0.316 µM
Second compound 1 µM
  IC50: > 0.316 µM
Second compound 3.16 µM
  IC50: > 0.316 µM
Second compound 10 µM
  IC50: < 0.000999 µM
Second compound 0.0316 µM, first compound 0.000999 µM
  viability, T/C: 86.2%
Second compound 0.0316 µM, first compound 0.00316 µM
  viability, T/C: 92.3%
Second compound 0.0316 µM, first compound 0.00999 µM
  viability, T/C: 85.7%
[1]
  viability, T/C: 78.1%
Second compound 0.0316 µM, first compound 0.0999 µM
  viability, T/C: 74.2%
[3]
  viability, T/C: 74.6%
Second compound 0.1 µM, first compound 0.000999 µM
  viability, T/C: 97.5%
Second compound 0.1 µM, first compound 0.00316 µM
  viability, T/C: 77.7%
Second compound 0.1 µM, first compound 0.00999 µM
  viability, T/C: 90.6%
[7]
  viability, T/C: 92.1%
Second compound 0.1 µM, first compound 0.0999 µM
  viability, T/C: 88.2%
[9]
  viability, T/C: 76.7%
Second compound 0.316 µM, first compound 0.000999 µM
  viability, T/C: 97.5%
Second compound 0.316 µM, first compound 0.00316 µM
  viability, T/C: 73.2%
Second compound 0.316 µM, first compound 0.00999 µM
  viability, T/C: 84.1%
[13]
  viability, T/C: 79.1%
Second compound 0.316 µM, first compound 0.0999 µM
  viability, T/C: 70.7%
[15]
  viability, T/C: 62.2%
Second compound 1 µM, first compound 0.000999 µM
  viability, T/C: 96.7%
Second compound 1 µM, first compound 0.00316 µM
  viability, T/C: 92.1%
Second compound 1 µM, first compound 0.00999 µM
  viability, T/C: 84.5%
[19]
  viability, T/C: 70.7%
Second compound 1 µM, first compound 0.0999 µM
  viability, T/C: 83.2%
[21]
  viability, T/C: 68.9%
Second compound 3.16 µM, first compound 0.000999 µM
  viability, T/C: 70.4%
Second compound 3.16 µM, first compound 0.00316 µM
  viability, T/C: 77.2%
Second compound 3.16 µM, first compound 0.00999 µM
  viability, T/C: 56.1%
[25]
  viability, T/C: 62.4%
Second compound 3.16 µM, first compound 0.0999 µM
  viability, T/C: 78.9%
[27]
  viability, T/C: 48.2%
Second compound 10 µM, first compound 0.000999 µM
  viability, T/C: 31.3%
Second compound 10 µM, first compound 0.00316 µM
  viability, T/C: 35.4%
Second compound 10 µM, first compound 0.00999 µM
  viability, T/C: 44.2%
[31]
  viability, T/C: 26.7%
Second compound 10 µM, first compound 0.0999 µM
  viability, T/C: 27.4%
[33]
  viability, T/C: 35.3%

## O=C(c1cc(Cc2n[nH]c(=O)c3ccccc23)ccc1F)N1CCN(C(=O)C2CC2)CC1 + CN(C)c1ccc(Nc2c3ccc(NC(=O)CCN4CCCC4)cc3nc3cc(NC(=O)CCN4CCCC4)ccc23)cc1
Second compound 0.0316 µM
  IC50: > 10 µM
Second compound 0.1 µM
  IC50: > 10 µM
Second compound 0.316 µM
  IC50: > 10 µM
Second compound 1 µM
  IC50: > 10 µM
Second compound 3.16 µM
  IC50: > 10 µM
Second compound 10 µM
  IC50: < 0.0316 µM
[1]
  viability, T/C: 96%
[2]
  viability, T/C: 133%
[3]
  viability, T/C: 84.8%
[4]
  viability, T/C: 80.8%
[5]
  viability, T/C: 123%
[6]
  viability, T/C: 89.4%
[7]
  viability, T/C: 101%
[8]
  viability, T/C: 83.7%
[9]
  viability, T/C: 118%
[10]
  viability, T/C: 102%
[11]
  viability, T/C: 90%
[12]
  viability, T/C: 81.9%
[13]
  viability, T/C: 109%
[14]
  viability, T/C: 92.5%
[15]
  viability, T/C: 97.8%
[16]
  viability, T/C: 84.2%
[17]
  viability, T/C: 85.2%
[18]
  viability, T/C: 69.9%
[19]
  viability, T/C: 85%
[20]
  viability, T/C: 78%
[21]
  viability, T/C: 70.1%
[22]
  viability, T/C: 70%
[23]
  viability, T/C: 95.8%
[24]
  viability, T/C: 69.2%
[25]
  viability, T/C: 80.5%
[26]
  viability, T/C: 53.2%
[27]
  viability, T/C: 66.8%
[28]
  viability, T/C: 60%
[29]
  viability, T/C: 77.4%
[30]
  viability, T/C: 57.6%
[31]
  viability, T/C: 37.3%
[32]
  viability, T/C: 46.2%
[33]
  viability, T/C: 31%
[34]
  viability, T/C: 49.3%
[35]
  viability, T/C: 36.4%
[36]
  viability, T/C: 32.9%
